Experiment: in vitro
Conditions: human, hela cells, % viability

Row | SMILES | viability at 28.5 h, 10 µM [%]
1 | Cc1nc2c(C(=O)NCCC3OCCO3)cnn2c(C)c1Cc1cccnc1 [CBK162159] | 108
2 | Cc1cc(Cc2ccc(Cl)cc2)cc(C2CCN(C(=O)Cc3csc(C)n3)CC2)n1 [CBK286526] | 88.5
3 | COc1ccccc1-c1ccc(CC2(C(=O)NCc3cccc(F)c3)CCOCC2)cc1 [CBK286521] | 92.6
4 | CCN(CC)c1ccc(CN(CCCN(C)C)C(=O)NCc2ccc(F)cc2)cc1 [CBK159410] | 89.9
5 | CCc1ccc(Oc2c[nH]nc2-c2ccc(OCc3cnn(-c4ccccc4)c3)cc2O)cc1 [CBK266233] | 91.4
6 | O=C1/C(=C2/Sc3ccccc3N2CCCS(=O)(=O)O)SC(=S)N1c1ccccc1 [CBK260954G] | 94.5
7 | Cc1ccc(S(=O)(=O)c2ccc(C)c(S(=O)(=O)N3CCCC3)c2)cc1S(=O)(=O)N1CCCC1 [CBK261772] | 78.9
8 | Cc1ccc(S(=O)(=O)N(CC(=O)Nc2ccc3c(c2)OCCO3)Cc2ccccc2F)cc1 [CBK265157] | 83.3
9 | CN(C)c1ccc(NC(=O)CC2Nc3ccccc3NC2=O)cc1 (stereo not shown) [CBK262765] | 87.1
10 | CC(=O)N1CCc2c([nH]c3c(C)cccc23)C12CCN(C/C=C\c1ccccc1)C2 (stereo not shown) [CBK040414] | 90.8
11 | Cn1ncc2c1CCCN(C(=O)COc1cccc(F)c1)C2 [CBK285257] | 96.9
12 | CCOC(=O)c1cnc(SC)nc1N1CCOCC1 [CBK018971] | 90.7
13 | Cn1nnc2c(N3CCN(C(=O)c4ccccc4)CC3)ncnc21 [CBK287830] | 90.6
14 | COc1cc(C(=O)Nc2nc3c(C)cccc3s2)cc(OC)c1OC [CBK287302] | 98.5
15 | O=C(CN1CCN(c2cc(-c3ccsc3)ncn2)CC1)N1CCCC1 [CBK091074] | 99.9
16 | Cc1nc(C2CN(Cc3c(Cl)ccc4cccnc34)CCO2)no1 (stereo not shown) [CBK305317] | 82
17 | CN(C)CCN(C)C(=O)c1cc(Br)cnc1N(C)S(C)(=O)=O [CBK076476] | 96.2
18 | CC(=O)N1C[C@H]2CCCN(S(=O)(=O)c3ccc(F)cc3)[C@H]2C1 [CBK285283] | 88.8
19 | COC(=O)CCn1c(-c2cccnc2C)cc2cccnc21 [CBK282593] | 105
20 | Cc1cc(CNC(=O)C2=CC(=O)CC(C)(C)O2)no1 [CBK153281] | 104
21 | CC1CCc2c(sc3ncnc(OCC(=O)N4CCOCC4)c23)C1 (stereo not shown) [CBK306000] | 95.9
22 | Oc1c(-c2cccc(C(F)(F)F)c2)cnc2cccnc12 [CBK081290] | 87.1

Row | SMILES | viability at 28.5 h, 10 µM [%]
23 | COc1cc(/C=C(\C#N)c2nc3ccccc3n2C)cc([N+](=O)[O-])c1O [CBK263893] | 91.4
24 | O=C(NCc1cccc(C(F)(F)F)c1)c1cnc(-c2ccccc2)c(-c2ccco2)c1 [CBK036667] | 103
25 | Fc1cc(F)c(OCCCCOc2nccnc2N2CCNCC2)cc1F [CBK028624T] | 105
26 | O=C(c1cc(C2CC2)n[nH]1)N1CCn2cc(C(F)(F)F)nc2C1 [CBK284749] | 81.6
27 | O=C(N[C@@H]1CNCCC[C@H]1O)c1ccc(OCc2ccccc2)cc1 [CBK289064] | 100
28 | COCC(=O)N1CC[C@H](c2nnc(-c3ccc(C)cc3)o2)C1 [CBK289410] | 114
29 | CN(C)C(=O)CSc1cnc2ccccc2n1 [CBK086626] | 86.3
30 | O=[N+]([O-])c1ccc(/C=C/c2nn3c(Cn4cnc5ccccc54)nnc3s2)cc1 [CBK268273] | 104
31 | Cc1cc(C)c2c(OCC(=O)Nc3nc(C(N)=O)cs3)nn(C)c2n1 [CBK305530] | 83.9
32 | O=C(O)c1ccc(-c2n[nH]c(=O)c3c2CCCC3)cc1 [CBK287868] | 93.6
33 | COc1cc(CNC(=O)N2CCC(C(=O)O)CC2)cc(OC)c1OC [CBK161401] | 81.5
34 | COC(=O)c1ccc(OCCn2nc(C)c(C)c(C#N)c2=O)cc1 [CBK305676] | 69.5
35 | C=C(C)Cn1c(SC(C)C)nnc1-c1ccccc1Cl [CBK200079] | 99.9
36 | CNC(=O)C1(Cc2ccc(-c3cccc(C)c3)cc2)CCN(C(=O)CC(C)C)CC1 [CBK285787] | 116
37 | O=C(O)c1cc(NC(=O)C2CCCO2)ccc1O (stereo not shown) [CBK269815] | 99
38 | Cc1c(NCc2ccc3c(c2)n(C)c(=O)n3C)cccc1C(=O)O [CBK287237] | 98.6
39 | O=C(c1ccccc1)c1cc(Cl)ccc1-n1ccnc1Br [CBK016011] | 90.4
40 | O=C(CCCN1C(=O)c2ccccc2C1=O)Oc1ccc(-c2ccccc2)cc1 [CBK267144] | 98.1
41 | Cc1ccc2c(C(=O)Nc3sc4c(c3C(N)=O)CCCCC4)cc(-c3ccccn3)nc2c1C [CBK267749] | 94
42 | Cc1cccnc1C(c1ccc(F)cc1)N(C)C(=O)C1CCN(C(=O)OCc2ccccc2)CC1 (stereo not shown) [CBK060095] | 116
43 | O=C(C[n+]1ccc(CCSCc2ccc3c4c(cccc24)CC3)cc1)c1ccc2c3c(cccc13)CC2 [CBK260881B] | 96.4
44 | Cn1ccc2cc(-c3cn4ccnc4c(N4CCOCC4)n3)ccc21 [CBK066696] | 89.1

Row | SMILES | viability at 28.5 h, 10 µM [%]
45 | Cn1cc(C(=O)NC2CCN(C(=O)c3ccc4c(c3)CCC4)CC2)cn1 [CBK305664] | 97.8
46 | Nc1ncnc2[nH]nc(Nc3ccc(F)cc3)c12 [CBK122523] | 79
47 | Cc1ccc(OCCNC(=O)C(C)Cn2cccn2)cc1 (stereo not shown) [CBK283252] | 111
48 | COc1ccc(C(=O)N2CCC3(CCN(C(=O)c4ccc5[nH]c(=O)[nH]c5c4)C3)C2)cc1OC (stereo not shown) [CBK131793] | 100
49 | COc1ccc([C@@]23CC[C@@H](NC(=O)c4ccc(SC(F)(F)F)cc4)C[C@@H]2N(C)CC3)cc1OC [CBK076654T] | 94.9
50 | CCN(CC)C(=O)Cn1nc(C)n2c(cc3occc32)c1=O [CBK283620] | 86.7
51 | N#Cc1ccc(-c2cnc(N)c(-c3ccc(NC(=O)CCN4CCCCC4)cc3)n2)cc1 [CBK116418] | 85
52 | Cc1cc(NC(=O)C(C)C)nc2c1c(=O)oc1ccccc12 [CBK287441] | 89.7
53 | O=C(NCC1(c2cccc(Br)c2)CCOCC1)C1CC(O)CN1 (stereo not shown) [CBK304257] | 95.9
54 | COc1ccc(CCNC(=O)c2ccn[nH]2)cc1OC [CBK288234] | 92.2
55 | COc1ccc(CN(CCCN2CCOCC2)C(=O)NCCCN2CCCC2=O)cc1OC [CBK159180] | 93.2
56 | Cn1c(=O)n(CC(=O)NCc2cccs2)c2cccnc21 [CBK283907] | 90.3
57 | CC(C)(C)c1cc(CN2CCN(c3ccccn3)CC2)cc(C(C)(C)C)c1O [CBK261520] | 117
58 | O=C(O)CCc1c(-c2ccccc2)cc2ccccn12 [CBK266308] | 109
59 | CNC(=O)c1cc(-c2cccc(Cl)c2)oc1CC(=O)c1ccc(CN2CCCC2)cc1 [CBK047558] | 95.3
60 | COc1ncc(-c2cnc(N)c(-c3ccc(C=O)cc3)n2)c(OC)n1 [CBK064110] | 94.1
61 | CCCC(CCC)NC(=O)c1ccc(-n2nc(C(=O)OCC)c(Cl)c2C)cc1 [CBK114323] | 93.9
62 | CC(=O)NC(CCCN=C(N)N)C(=O)O (stereo not shown) [CBK218726] | 107
63 | C=CCOc1nc2c(=O)[nH]c(NC(=O)C(C)C)nc2n1[C@H]1C[C@@H](O)[C@@H](CO)O1 [CBK201216] | 100
64 | CC1CCn2c3c(c4cccc1c42)CCNCC3 (stereo not shown) [CBK018012C] | 97.4
65 | Nc1ncnc(NCCc2c[nH]c3ccccc23)c1[N+](=O)[O-] [CBK267283] | 29.6
66 | CC(O)CN1CCN(c2nc(-c3ccncc3)nc3c2CCC3)CC1 (stereo not shown) [CBK304971] | 90.3

Row | SMILES | viability at 28.5 h, 10 µM [%]
67 | COc1ccc(Br)cc1S(=O)(=O)Nc1ccc(C(=O)O)cc1 [CBK034047] | 106
68 | S=C(Nc1cccc(Cl)c1Cl)Nc1nn(Cc2ccc(Cl)c(Cl)c2)cc1Cl [CBK267109] | 109
69 | c1ccc(-n2ncc3c(NCc4cccnc4)ncnc32)cc1 [CBK265528] | 85.2
70 | O=c1[nH]c(CSc2nnc(CCCOc3ccc(Cl)cc3Cl)o2)nc2ccccc12 [CBK268861] | 97.2
71 | COCCCn1c(=O)[nH]c2ncc(-c3cccc(CO)c3)nc21 [CBK065104] | 99.4
72 | Cc1c(S(=O)(=O)Nc2cc(C(F)(F)F)ccc2N2CCOCC2)cnn1-c1ccccc1 [CBK062551] | 99.7
73 | Cc1cc(C)cc(N(C(C)C(=O)Nc2ccc(C(F)(F)F)cc2)S(C)(=O)=O)c1 (stereo not shown) [CBK268834] | 89.6
74 | OCc1ccc(CN2Cc3nc[nH]c3C[C@H]2c2nc(Cc3ccccc3)no2)o1 [CBK288955] | 93.8
75 | CCC1CCCCN1C(=O)c1ccc(NC2CC2)nc1 (stereo not shown) [CBK304815] | 92.2
76 | Cn1c2ccccc2c2ncn(CCCO)c(=O)c21 [CBK287951] | 56.9
77 | NC(=O)C1(N2CCCCC2)CCN(CC(=O)Nc2ccc(Br)cc2)CC1 [CBK268364] | 86.2
78 | O=C(NCc1ccc(-c2nc3ncccc3o2)cc1)c1ccc(F)cc1 [CBK270182] | 91.3
79 | Cc1cc(N(C)CCOc2ccccc2F)nc(N)n1 [CBK305969] | 79.6
80 | Cc1ccc(S(=O)(=O)NCCCN2CCOCC2)cc1C [CBK262934] | 96.6
81 | Cc1c(C#N)c(=O)ncn1Cc1ccncc1 [CBK021603] | 102
82 | O=C(CCc1cccc(F)c1)Nc1cnc(-c2ccc(F)cc2)c(-c2ccoc2)n1 [CBK037077] | 85.3
83 | CCOC(=O)C1CCN(C(=O)c2cnn3c(C)c(Cc4cccc(Cl)c4)c(C)nc23)CC1 [CBK160305] | 92.5
84 | COc1ccc(C(C)C)cc1-c1cnc2cccnc2c1N [CBK081211] | 105
85 | CCN1CCCC1CNC(=O)c1cccc(Cl)c1 (stereo not shown) [CBK262621] | 84.3
86 | C(=C\c1ccccc1)/CN1CCN(CCCc2ccccc2)CC1 [CBK261897] | 90
87 | CN(C)CCN1CCN(c2nc(-c3ccc4c(c3)OCO4)cnc2N)CC1 [CBK063495] | 93.9
88 | Cc1cc(Br)ccc1C(=O)Nc1ccc2cc[nH]c2c1 [CBK160046] | 84.1

Source: publication PMC12040169 (PLOS Biology, 2025)
